This is an account of results in patent US6046218A, “Pyridine derivative and medicament containing the same as an effective ingredient” (SS Pharmaceutical Co., Ltd., priority 1996, dated 2000).

Where a name gives a salt, the structure may show the parent alone.

The test system of the experiment is IL-5 production. In words: Test 3: inhibition of IL-5 production in human PBMC stimulated with ConA. In kind it is cell-based. The settings on record: 10^-6 M, 10 μg/ml ConA, 48 hours, read-out: Inhibition rate of IL-5 production. On the procedure: Test 3: Test on the inhibition of IL-5 production
The peripheral blood was collected from a normal volunteer and peripheral blood mononuclear cells (PBMC) of the human peripheral blood were separated therefrom by the specific gravity centrifugation method. They were suspended in an AIM-V medium and their cell count was adjusted. To individual wells of a 96-well incubation plate, 1×10^6 cells/ml of PBMC were poured, followed by the addition of a stimulator (10 μg/ml of ConA) and a medicament. The resulting mixture was incubated in 5% CO2 at 37° C. for 48 hours. After incubation, 50 μl of the supernatant were collected and subjected to measurement by a human IL-5 EIA kit (BIO SOURCE, INC.). The inhibition rate was calculated according to the following formula. [formula]
Usually inhibition stands for how much of the control response was suppressed. Consider `CCCCCC(=O)/C=C/c1cc(OCCCCCC(=O)OCC)c(OCc2ccccc2)cn1` [Ex. 14, Ethyl 6-[5-benzyloxy-2-(3-oxo-1-octenyl)-4-pyridyloxy]hexanoate], for which the inhibition at 1 µM was 90.2%. For the compound `Oc1cnc(/C=C/C(O)c2ccccc2)cc1O` (stereo not drawn) [Ex. 25, 4,5-Dihydroxy-2-(3-hydroxy-3-phenyl-1-propenyl)pyridine], the inhibition at 1 µM was found to be 97.5%. `COC(=O)CCCCCOc1cc(/C=C/C(O)c2ccccc2)ncc1OC` (stereo not drawn) [Ex. 26, Methyl 6-[2-(3-hydroxy-3-phenyl-1-propenyl)-5-methoxy-4-pyridyloxy]hexanoate]: the inhibition at 1 µM worked out at 83.7%. With `CCOC(=O)CCCCCOc1cc(/C=C/C(O)c2ccccc2)ncc1OC` (stereo not drawn) [Ex. 27, Ethyl 6-[2-(3-hydroxy-3-phenyl-1-propenyl)-5-methoxy-4-pyridyloxy]hexanoate], the inhibition at 1 µM came to 89.6%. On to `COC(=O)CCCOc1cnc(/C=C/C(O)c2ccccc2)cc1OC` (stereo not drawn) [Ex. 28, Methyl 4-[2-(3-hydroxy-3-phenyl-1-propenyl)-4-methoxy-5-pyridyloxy]butanoate], for which the inhibition at 1 µM came out at 72.1%. In the case of `COC(=O)CCCOc1cc(/C=C/C(O)c2ccccc2)ncc1OC` (stereo not drawn) [Ex. 29, Methyl 4-[2-(3-hydroxy-3-phenyl-1-propenyl)-5-methoxy-4-pyridyloxy]butanoate], the inhibition at 1 µM turned out to be 99.8%.

Regarding `COC(=O)CCCOc1cnc(/C=C/C(O)C2CCCC2)cc1OC` (stereo not drawn) [Ex. 32, Methyl 4-[2-(3-cyclopentyl-3-hydroxy-1-propenyl)-4-methoxy-5-pyridyloxy]butanoate], the inhibition at 1 µM was found to be 80.7%. `COc1cnc(/C=C/C(O)c2ccccc2)cc1OCCCC(=O)O` (stereo not drawn) [Ex. 34, 4-[2-(3-Hydroxy-3-phenyl-1-propenyl)-5-methoxy-4-pyridyloxy]butanoic acid]: the inhibition at 1 µM stood at 61%. Turning to `COc1cc(/C=C/C(O)C2CCCC2)ncc1OCCCC(=O)O` (stereo not drawn) [Ex. 37, 4-[2-(3-Cyclopentyl-3-hydroxy-1-propenyl)-4-methoxy-5-pyridyloxy]butanoic acid hydrochloride], the inhibition at 1 µM amounted to 72.6%. On to `CCCCCC(O)/C=C/c1cc(OCCCC(=O)O)c(O)cn1` (stereo not drawn) [Ex. 39, 4-[5-Hydroxy-2-(3-hydroxy-1-octenyl)-4-pyridyloxy]butanoic acid hydrochloride], for which the inhibition at 1 µM came out at 97.6%. `CCCCCC(O)/C=C/c1cc(OCCCC(=O)O)c(OC)cn1` (stereo not drawn) [Ex. 40, 4-[2-(3-Hydroxy-1-octenyl)-5-methoxy-4-pyridyloxy]butanoic acid hydrochloride]: the inhibition at 1 µM amounted to 97.5%. As for `CCCCCC(O)/C=C/c1cc(OC)c(OCCCCC(=O)O)cn1` (stereo not drawn) [Ex. 41, 5-[2-(3-Hydroxy-1-octenyl)-4-methoxy-5-pyridyloxy]pentanoic acid hydrochloride], the inhibition at 1 µM amounted to 91%. Next, `COC(=O)CCCCCOc1cc(/C=C/C(=O)c2ccccc2)ncc1OC` [Ex. 42, methyl 6-[5-methoxy-2-(3-oxo-3-phenyl-1-propenyl)-4-pyridyloxy]hexanoate]: 77.5%; `COc1cnc(/C=C/C(=O)c2ccccc2OC)cc1OC` [Ex. 49]: 65%.

In the case of `COc1ccc(C(=O)/C=C/c2cc(OC)c(OC)cn2)cc1` [Ex. 50, 4,5-Dimethoxy-2-[3-(4-methoxyphenyl)-3-oxo-1-propenyl]pyridine], the inhibition at 1 µM is 79.4%. As to `CCOc1cnc(/C=C/C(=O)c2ccccc2)cc1O` [Ex. 55, 5-Ethoxy-4-hydroxy-2-(^3-oxo-3-phenyl-1-propenyl]pyridine], the inhibition at 1 µM is 97.5%. Next, `COc1ccc(OC)c(C(=O)/C=C/c2cc(O)c(OC)cn2)c1` [Ex. 57, 4-Hydroxy-5-methoxy-2-[3-(2,5-dimethoxyphenyl)-3-oxo-1-propenyl]pyridine]: 82.5%. Turning to `COc1cnc(/C=C/C(=O)c2ccc(OC)c(OC)c2)cc1O` [Ex. 58, 4-Hydroxy-5-methoxy-2-[3-(3,4-dimethoxyphenyl)-3-oxo-1-propenyl]pyridine hydrochloride], the inhibition at 1 µM is 91.3%. Regarding `COc1ccc(C(=O)/C=C/c2cc(O)c(OC)cn2)c(OC)c1` [Ex. 59, 4-Hydroxy-5-methoxy-2-[3-(2,4-dimethoxyphenyl)-3-oxo-1-propenyl]pyridine], the inhibition at 1 µM worked out at 78.9%.

As to `COc1cnc(/C=C/C(=O)c2ccccc2OC)cc1O` [Ex. 60, 4-Hydroxy-5-methoxy-2-[3-(2-methoxyphenyl)-3-oxo-1-propenyl]pyridine], the inhibition at 1 µM turned out to be 91.4%. For `COc1cnc(/C=C/C(=O)c2cc(OC)c(OC)c(OC)c2)cc1O` [Ex. 61, 4-Hydroxy-5-methoxy-2-[3-oxo-3-(3,4,5-trimethoxyphenyl)-1-propenyl]pyridinehydrochloride], the inhibition at 1 µM is 79.4%. Next, `COc1cnc(/C=C/C(=O)c2ccco2)cc1OC` [Ex. 62, 4,5-Dimethoxy-2-[3-(2-furyl)-3-oxo-1-propenyl]pyridine]: 72.3%; `COc1cnc(/C=C/C(=O)c2cccs2)cc1OC` [Ex. 63, 4,5-Dimethoxy-2-[3-oxo-3-(2-thienyl)-1-propenyl]pyridine]: 81%. Next, `COc1cnc(/C=C/C(=O)c2ccsc2)cc1OC` [Ex. 64, 4,5-Dimethoxy-2-[3-oxo-3-(3-thienyl)-1-propenyl]pyridine]: 82.1%; `COc1cnc(/C=C/C(=O)c2ccsc2)cc1O` [Ex. 65, 4-Hydroxy-5-methoxy-2-[3-oxo-3-(3-thienyl)-1-propenyl]pyridine]: 77.2%; `COc1cnc(/C=C/C(=O)c2ccccn2)cc1OC` [Ex. 66, 4,5-dimethoxy-2-[3-oxo-3-(2-pyridyl)-1-propenyl]pyridine]: 70.1%.

In the case of `COc1cnc(/C=C/C(=O)c2cccnc2)cc1OC` [Ex. 67, 4,5-Dimethoxy-2-[3-oxo-3-(3-pyridyl)-1-propenyl]pyridine], the inhibition at 1 µM was determined as 77.9%.

Take `COc1cnc(/C=C/C(=O)c2ccncc2)cc1OC` [Ex. 68, 4,5-Dimethoxy-2-[3-oxo-3-(4-pyridyl)-1-propenyl]pyridine]: the inhibition at 1 µM was found to be 95.4%. Next, `CCOC(=O)CCCCCOc1cc(/C=C/C(=O)c2ccccn2)ncc1OC` [Ex. 69, Ethyl 6-[5-methoxy-2-(3-oxo-3-(2-pyridyl)-1-propenyl]-4-pyridyloxy]hexanoate]: 73.1%; `COc1cnc(/C=C/C(=O)C2CCCCC2)cc1O` [Ex. 75, 2-(3-Cyclohexyl-3-oxo-1-propenyl)-4-hydroxy-5-methoxypyridine hydrochloride]: 90.6%; `CCOC(=O)CCCOc1cc(/C=C/C(=O)C2CCCC2)ncc1OC` [Ex. 79, Ethyl 4-[2-(3-cyclopentyl-3-oxo-1-propenyl)-5-methoxy-4-pyridyloxy]butanoate hyd rochloride]: 64.1%. Next, `CCOC(=O)CCCOc1cc(/C=C/C(=O)C2CCC2)ncc1OC` [Ex. 80, Ethyl 4-[2-(3-cyclobutyl-3-oxo-1-propenyl)-5-methoxy-4-pyridyloxy]butanoatehydrochloride]: 69.2%.

In the case of `CCOC(=O)COc1cnc(/C=C/C(=O)c2ccccc2)cc1OC` [Ex. 81, Ethyl [4-methoxy-6-(3-oxo-3-phenyl-1-propenyl)-3-pyridyloxy]acetate], the inhibition at 1 µM was determined as 72.7%. Next, `CCOC(=O)CCCOc1cnc(/C=C/C(=O)c2ccccc2)cc1OC` [Ex. 82, Ethyl 4-[4-methoxy-6-(3-oxo-3-phenyl-1-propenyl)-3-pyridyloxy]butanoate]: 69.6%; `CCOC(=O)CCCCCOc1cnc(/C=C/C(=O)c2ccccc2)cc1OC` [Ex. 83, Ethyl 6-[4-methoxy-6-(3-oxo-3-phenyl-1-propenyl)-3-pyridyloxy]hexanoate]: 96.2%.

On to `CCOC(=O)CCCOc1cc(/C=C/C(=O)c2ccccc2)ncc1OCC` [Ex. 84, Ethyl 4-[5-ethoxy-2-(3-oxo-3-phenyl-1-propenyl)-4-pyridyloxy]butanoate hydrochloride], for which the inhibition at 1 µM was 89.4%. Next, `CCOC(=O)CCCCOc1cc(/C=C/C(=O)c2cc(OC)ccc2OC)ncc1OC` [Ex. 89, Ethyl 5-[5-methoxy-2-(3-(2,5-dimethoxyphenyl)-3-oxo-1-propenyl)-4-pyridyloxy]pentanoate]: 82.1%; `CCOC(=O)CCCOc1cc(/C=C/C(=O)c2ccccc2OC)ncc1OC` [Ex. 93, Ethyl 4-[5-methoxy-2-(3-(2-methoxyphenyl)-3-oxo-7-propenyl)-4-pyridyloxy]butanoate hydrochloride]: 66%; `CCOC(=O)CCCCCOc1cc(/C=C/C(=O)c2cc(OC)c(OC)c(OC)c2)ncc1OC` [Ex. 101, Ethyl 6-[5-methoxy-2-(3-oxo-3-(3,4,5-trimethoxyphenyl)-1-propenyl)-4-pyridyloxy]hexanoate hydrochloride]: 95.6%.

Take `COc1cnc(/C=C/C(=O)c2cc(OC)c(OC)c(OC)c2)cc1OCCCCCCO` [Ex. 102, 6-[5-Methoxy-2-(3-oxo-3-(3,4,5-trimethoxyphenyl)-1-propenyl)-4-pyridyloxy]hexyl alcohol hydrochloride]: the inhibition at 1 µM came out at 97.3%. On to `COc1cnc(/C=C/C(=O)c2ccccc2)cc1OCCCCCC(=O)O` [Ex. 103, 6-[5-Methoxy-2-(3-oxo-3-phenyl-1-propenyl)-4-pyridyloxy]hexanoic acid], for which the inhibition at 1 µM worked out at 72.4%. Next, `CCOc1cnc(/C=C/C(=O)c2ccccc2)cc1OCCCC(=O)O` [Ex. 104, 4-[5-Ethoxy-2-(3-oxo-3-phenyl-1-propenyl)-4-pyridyloxy]butanoic acid hydrochloride]: 89.3%.
